# In the supplement of paper PMC11451515:
# Tested on: NOMO1
# Experiment: cell viability relative to DMSO control; higher = less cytotoxic
# Conditions: 48 h
# How it was run: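 NOMO1 or SEM cells were plated at 500 cells/well and P12-Ichikawa cells at 1000 cells/well in 1536-well plates (5 μl), after each leukemia line had been adapted for at least four passages in each medium. Pin dosing delivered library compounds in DMSO at 11 threefold concentrations, 47 μM to 0.79 nM. CellTiter-Glo One luminescence was read after 48 h at 37°C. Viability is reported as a per-plate percentage of DMSO wells, with cell-free wells as background.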
# [1] = RPMI 5 mM glucose + 10% FBS, 0.000781 µM
# [2] = RPMI 5 mM glucose + 10% FBS, 0.00234 µM
# [3] = RPMI 5 mM glucose + 10% FBS, 0.00702 µM
# [4] = RPMI 5 mM glucose + 10% FBS, 0.0211 µM
# [5] = RPMI 5 mM glucose + 10% FBS, 0.0632 µM
# [6] = RPMI 5 mM glucose + 10% FBS, 0.19 µM
# [7] = RPMI 5 mM glucose + 10% FBS, 0.569 µM
# [8] = RPMI 5 mM glucose + 10% FBS, 1.71 µM
# [9] = RPMI 5 mM glucose + 10% FBS, 5.12 µM
# [10] = RPMI 5 mM glucose + 10% FBS, 15.4 µM
# [11] = RPMI 5 mM glucose + 10% FBS, 46.1 µM
# [12] = RPMI 5 mM glucose + 10% dialyzed FBS, 0.000781 µM
# [13] = RPMI 5 mM glucose + 10% dialyzed FBS, 0.00234 µM
# [14] = RPMI 5 mM glucose + 10% dialyzed FBS, 0.00702 µM
# [15] = RPMI 5 mM glucose + 10% dialyzed FBS, 0.0211 µM
# [16] = RPMI 5 mM glucose + 10% dialyzed FBS, 0.0632 µM
# [17] = RPMI 5 mM glucose + 10% dialyzed FBS, 0.19 µM
# [18] = RPMI 5 mM glucose + 10% dialyzed FBS, 0.569 µM
# [19] = RPMI 5 mM glucose + 10% dialyzed FBS, 1.71 µM
# [20] = RPMI 5 mM glucose + 10% dialyzed FBS, 5.12 µM
# [21] = RPMI 5 mM glucose + 10% dialyzed FBS, 15.4 µM
# [22] = RPMI 5 mM glucose + 10% dialyzed FBS, 46.1 µM
# [23] = HPLM + 10% dialyzed FBS, 0.000781 µM
# [24] = HPLM + 10% dialyzed FBS, 0.00234 µM
# [25] = HPLM + 10% dialyzed FBS, 0.00702 µM
# [26] = HPLM + 10% dialyzed FBS, 0.0211 µM
# [27] = HPLM + 10% dialyzed FBS, 0.0632 µM
# [28] = HPLM + 10% dialyzed FBS, 0.19 µM
# [29] = HPLM + 10% dialyzed FBS, 0.569 µM
# [30] = HPLM + 10% dialyzed FBS, 1.71 µM
# [31] = HPLM + 10% dialyzed FBS, 5.12 µM
# [32] = HPLM + 10% dialyzed FBS, 15.4 µM
# [33] = HPLM + 10% dialyzed FBS, 46.1 µM
SMILES,cell viability [1] [%],cell viability [2] [%],cell viability [3] [%],cell viability [4] [%],cell viability [5] [%],cell viability [6] [%],cell viability [7] [%],cell viability [8] [%],cell viability [9] [%],cell viability [10] [%],cell viability [11] [%],cell viability [12] [%],cell viability [13] [%],cell viability [14] [%],cell viability [15] [%],cell viability [16] [%],cell viability [17] [%],cell viability [18] [%],cell viability [19] [%],cell viability [20] [%],cell viability [21] [%],cell viability [22] [%],cell viability [23] [%],cell viability [24] [%],cell viability [25] [%],cell viability [26] [%],cell viability [27] [%],cell viability [28] [%],cell viability [29] [%],cell viability [30] [%],cell viability [31] [%],cell viability [32] [%],cell viability [33] [%]
Nc1ncnc2nc(-c3ccc(N4CCOCC4)nc3)cc(-c3cccc(Br)c3)c12,108,107,116,121,111,118,122,115,114,106,107,108,127,121,111,106,120,110,117,116,106,120,–,–,–,–,–,–,–,–,–,–,–
COc1cc2c(cc1O)CCC1C2CC[C@@]2(C)C1CC[C@@H]2O (stereo partly drawn),117,111,103,110,121,120,111,101,84.2,25.1,32.6,118,129,117,116,121,115,119,115,63.8,33.9,40.4,–,–,–,–,–,–,–,–,–,–,–
O=C(Nc1ccccc1)Nc1ccc(-c2ccc(C(=O)[C@@H]3CCC[C@H]3C(=O)O)cc2)cc1,109,111,98.6,101,110,97.7,100,95.9,90.6,83.5,69.5,105,121,114,105,122,97.9,88.8,96,81.8,73.7,59.7,109,122,103,94.1,119,98.3,99,77,67.2,66.7,56.5
C/C=C(\C)C(=O)N[C@@H](c1ccccc1)[C@@H](O)C(=O)O[C@H]1C[C@@]2(O)[C@@H](OC(=O)c3ccccc3)[C@@H]3[C@]4(OC(C)=O)CO[C@@H]4C[C@H](O)[C@@]3(C)C(=O)[C@H](OC(C)=O)C(=C1C)C2(C)C,38.9,13.2,17.4,13.8,14.7,14.3,13,15.6,12.4,11.3,9.52,47.4,17.8,21.3,20.2,17.5,20.3,17.2,16.1,19.8,21.3,16.6,25.1,23.3,26.8,30.3,29.7,27.4,23.4,26.9,24.1,28.9,20.7
c1coc(CNc2ncnc3nc[nH]c23)c1,125,131,124,113,116,119,140,132,118,119,108,124,122,125,124,128,121,121,112,107,94.1,88.5,120,126,123,133,129,136,117,118,118,108,97.3
Clc1ccc(C(c2ccc(Cl)cc2)[n+]2ccn(CC(OCc3ccc(Cl)cc3Cl)c3ccc(Cl)cc3Cl)c2)cc1 (stereo not drawn),94.6,100,105,94.7,119,113,91,103,102,74.3,3.56,105,105,118,114,112,107,98.5,91.3,90.4,83,2.5,108,99,113,110,107,107,115,102,101,81.2,3.86
O=c1oc2cc(O)ccc2s1,109,117,130,108,105,116,108,108,115,102,98.3,98.1,116,117,119,103,104,112,105,101,107,109,109,128,120,107,114,110,110,95.8,101,110,90.3
NCCOc1cc(C(=O)Nc2cc(OCCN)c3ccccc3n2)nc(C(=O)Nc2cc(OCCN)c3ccccc3n2)c1,96,60.5,42.3,27,25.8,25.2,27.9,24,25.8,38.5,64.1,–,–,–,–,–,–,–,–,–,–,–,65.8,36.4,43.9,40.8,38.1,47.5,43.2,40.3,42.2,56.4,56.4
CCOc1ccccc1N/N=C1/C(=O)N(c2nc(-c3ccccc3)cs2)N=C1C,109,103,104,114,97.3,109,101,97.3,97.8,77.1,56.1,109,106,103,122,118,102,104,90.5,90,59.8,39.7,118,122,119,123,113,117,115,108,103,57.5,32.1
COCC(=O)NC/C=C/c1ccc2ncnc(Nc3ccc(Oc4ccc(C)nc4)c(C)c3)c2c1,94.2,96.4,107,95,90.6,81.3,78,49.7,60.2,50.1,52.8,87.7,90.6,93.9,99.8,97.4,92.2,78.4,71.2,57.6,66.8,41,84.6,89.4,109,90.8,92.1,57.3,65.8,52.9,37,42.4,34.2
O=C(O)c1cccnc1,121,123,121,102,124,116,112,101,85,23.7,14.4,116,117,116,117,118,122,117,98.6,61.5,22.1,10,121,114,130,118,115,123,107,85.2,49.4,27.4,13.2
N#Cc1cc(NC(=O)Nc2nnc(-c3ccncc3)s2)ccc1-c1cn[nH]c1,108,100,114,124,114,115,99.6,114,105,127,101,–,–,–,–,–,–,–,–,–,–,–,117,118,115,110,116,114,113,130,121,123,106
CC[C@H]1OC(=O)[C@H](C)[C@@H](O[C@H]2C[C@@](C)(OC)[C@@H](O)[C@H](C)O2)[C@H](C)[C@@H](O[C@@H]2O[C@H](C)C[C@H](N(C)C)[C@H]2O)[C@](C)(O)C[C@@H](C)/C(=N\OCOCCOC)[C@H](C)[C@@H](O)[C@]1(C)O,85.2,92,95,84.6,89.5,90.7,87.3,88.9,90.9,91.1,82,85.9,79.3,83.3,74.1,76.6,69.5,72.1,82.1,80.1,79.8,79.8,101,95.6,86,89.4,92.9,89.6,78.6,75.3,80.1,68.5,85.5
COc1cccc(N(C)C(=S)Oc2ccc3c(c2)CCCC3)n1,85.4,88.1,87,82.2,103,90.8,91,88.1,103,92.2,105,82.3,98.9,94,84,99.5,97.7,103,94.2,105,108,101,93.3,95.6,118,89.1,111,102,101,110,108,102,99.6
CCOc1cc(C(=O)Nc2ccc(Cl)c(-c3nc4ccccc4[nH]3)c2)cc(OCC)c1OCC,72.8,90.6,81.9,92.8,93,90.3,83.5,83.2,88.2,98.1,59.1,83.8,84.3,104,84.6,84.6,90.3,87.3,95,109,101,50.1,79.3,104,101,102,104,108,105,115,107,116,63.3
OC[C@H]1OC(O)C[C@@H](O)[C@@H]1O (stereo partly drawn),–,–,–,–,–,–,–,–,–,–,–,109,118,128,125,137,123,120,142,128,129,68,110,113,127,125,125,128,121,135,109,122,52.4
